Measured values reported in patent publication US11789013B2, “Componential analyzer, drug efficacy analyzer, and analysis method” (Hitachi High-Tech Corporation, priority 2013, dated 2023).

Tested on: hepatocytes
Experiment: Drug distribution / efflux fraction analysis in cultured hepatocytes (basolateral efflux, biliary excretion, intracellular fraction)
Format: in vitro ADME, rat
Conditions: for ratio of the amount of drug excreted into the bile duct to the total amount of drug taken up into the cells (BiRD), (B1−B2)/(C1+C2): pattern 1, sequences 1 (EGTA disrupted) and 2 (maintained), 37° C.; for ratio of the amount of drug excreted into the bile duct to the total amount of drug taken up into the cells (BiRD), (B1−B2)/(C1+C2) / Sup fraction (first fraction of the basolateral efflux, S1), index for tendency to remain or not to remain in the cells: 30 minutes; for ratio of the amount of drug excreted into the bile duct to the total amount of drug taken up into the cells (BiRD), (B1−B2)/(C1+C2) / ratio of the amount of drug excreted via transporter to the amount of drug excreted to the basolateral side (RexEMTP), (B2-B3)/B2: fluorescence; for ratio of the amount of drug excreted via transporter to the amount of drug excreted to the basolateral side (RexEMTP), (B2-B3)/B2: pattern 1, step 5, 30 minutes, sequences 2 (37° C.) and 3 (4° C.); for Sup fraction (first fraction of the basolateral efflux, S1), index for tendency to remain or not to remain in the cells: pattern 2 (sum of steps 4, 5, 6 = 100%), step 4, 37° C., in %
Protocol: Hepatocytes were prepared by in situ collagenase perfusion method. The details are as follows. A rat (5-6 week-old) is anesthetized with pentobarbital and laparotomy is performed to insert a catheter into the portal vein and inject the preperfusion solution (a Ca^2+ and Mg^2+ free Hanks' solution containing EGTA). After confirming that blood is sufficiently removed from the liver, the perfusion is stopped. The perfusate is changed into a collagenase solution to conduct perfusion. In this embodiment, the perfusion is conducted with a Hanks' solution containing 0.05% collagenase, but the collagenase solution is not limited to this. Once confirmed that the tissue between the cells was digested by collagenase, the perfusion is stopped. The liver is excised, sliced in a cooled Hanks' solution, and separated into cells by pipetting. Damaged hepatocytes are removed by centrifugation at 500 G for 5 minutes with an isotonic Percoll solution. The viability of the resultant hepatocytes is determined by the trypan blue-exclusion test. Hepatocytes having a viability of 85% or more are used for culture. Here, hepatocytes having a viability of 85% or more are used for culture, but such culture is, needless to say, not necessarily limited to the condition. In addition, the preparation of hepatocytes is not necessarily limited to that by in situ collagenase perfusion method. The hepatocytes to be used are not limited to those derived from a rat and the strain of rat is not limited. This embodiment uses hepatocytes, but cells are not limited to this.
Hepatocytes prepared by in situ collagenase perfusion method as described above are suspended in a medium. The hepatocytes are suspended at a density of 5×10^5 cells/mL in a medium and plated onto a commercially available culture dish coated with collagen. The density upon plating, the medium, and the culture plate 001 are not particularly limited. The culture plate is illustrated in FIG. 1. A 24 well culture plate having 24 culture regions (wells, 002) is here illustrated, but the culture plate is not limited to this as long as it can contain predetermined cells and containers in other shapes may be used. After plating, culture is started under conditions of 5% CO2 and 37° C. using a CO2 incubator. After 18 hours or more, the first medium change is conducted. Although the medium to be used for culture 18 hours after the plating is not particularly limited, in this embodiment, the medium (FCS−), a medium in which FCS is removed from the medium (10% FCS+), supplemented with Matrigel is used. After this, medium change with the medium (FCS−) is conducted every 24 hours. As described later, testing is conducted under three different conditions (sequences 1, 2, and 3: described in detail in step 5) in step 5, three independent culture plates with the same conditions are prepared at this point. In steps 0 to 4 and step 5, the same testing operations are conducted in all the three sequences.
The culture supernatant of the cells cultured in step 0 for 4 days is removed and 400 μL of Hanks' solution is added as a buffer. The cells are incubated at 37° C. for 10 minutes (FIG. 2, step 1). The type and amount of buffer are not particularly limited.
The buffer is removed, and then 200 μL of 10 μM CDF (a fluorescent reagent) is added to the well. The plate is incubated at 37° C. for 30 minutes and then maintained at 4° C. for 5 minutes (FIG. 2, step 2). The type, concentration, and amount of the reagent are not particularly limited. CDF emits fluorescence and can be therefore easily quantified by a plate reader as a model reagent. The amount of administration, 200 μL, was chosen so that the cells as a whole in the well would be immersed in the reagent. The concentration of CDF may be a concentration conventionally used for a fluorescence assay of cells. This concentration is preferably applied as an amount of the reagent for the detection with a plate reader. […]

ratio of the amount of drug excreted into the bile duct to the total amount of drug taken up into the cells (BiRD), (B1−B2)/(C1+C2)	ratio of the amount of drug excreted via transporter to the amount of drug excreted to the basolateral side (RexEMTP), (B2-B3)/B2	Sup fraction (first fraction of the basolateral efflux, S1), index for tendency to remain or not to remain in the cells	Substance
18.58	41.08	70.82	CDF
4.92	52.52	39.29	Rhodamine123
